Legend:
Type in all cases: in vivo
rape (Brassica napus) = experiment: Test B pre-/postemergence; set-up: key: 0 is no effect; 10 is complete control
Procedure, shortened: (§1)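 Compounds in a surfactant-containing, non-phytotoxic solvent blend are applied to freshly planted seed (preemergence) and, concurrently, to seedlings of 2 to 18 cm at 1–4 leaves (postemergence). Plants stay in the greenhouse twelve to sixteen days and are then scored visually from 0 (no effect) to 10 (complete control).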

[1] = system: sugar beet (Beta vulgaris); experiment: Test B pre-/postemergence; set-up: key: 0 is no effect; 10 is complete control
Procedure, shortened: as §1

[2] = system: blackgrass (Alopecurus myosuroides); experiment: Test B pre-/postemergence; set-up: key: 0 is no effect; 10 is complete control; conditions: for Blackgrass plant response rating: Preemergence
Procedure, shortened: as §1

[3] = system: broadleaf signalgrass (Brachiaria decumbens); experiment: Test B pre-/postemergence; set-up: key: 0 is no effect; 10 is complete control; conditions: for B. signalgrass plant response rating: Preemergence
Procedure, shortened: as §1

soybean (Glycine max) = experiment: Test B pre-/postemergence; set-up: key: 0 is no effect; 10 is complete control
Procedure, shortened: as §1

[4] = system: bedstraw (Galium aparine); experiment: Test B pre-/postemergence; set-up: key: 0 is no effect; 10 is complete control; conditions: for Bedstraw plant response rating: Preemergence
Procedure, shortened: as §1

[5] = system: wheat (Triticum aestivum); experiment: Test B pre-/postemergence; set-up: key: 0 is no effect; 10 is complete control
Procedure, shortened: as §1

[6] = system: velvetleaf (Abutilon theophrasti); experiment: Test B pre-/postemergence; set-up: key: 0 is no effect; 10 is complete control
Procedure, shortened: as §1

corn (Zea mays) = experiment: Test B pre-/postemergence; set-up: key: 0 is no effect; 10 is complete control; conditions: for Corn plant response rating: Preemergence
Procedure, shortened: as §1

[7] = system: purple nutsedge (Cyperus rotundus); experiment: Test B pre-/postemergence; set-up: key: 0 is no effect; 10 is complete control
Procedure, shortened: as §1

wild oat (Avena fatua) = experiment: Test B pre-/postemergence; set-up: key: 0 is no effect; 10 is complete control
Procedure, shortened: as §1

[8] = system: giant foxtail (Setaria faberii); experiment: Test B pre-/postemergence; set-up: key: 0 is no effect; 10 is complete control
Procedure, shortened: as §1

[9] = system: pigweed (Amaranthus retroflexus); experiment: Test B pre-/postemergence; set-up: key: 0 is no effect; 10 is complete control
Procedure, shortened: as §1

[10] = system: cocklebur (Xanthium strumarium); experiment: Test B pre-/postemergence; set-up: key: 0 is no effect; 10 is complete control; conditions: for Cocklebur plant response rating: Preemergence
Procedure, shortened: as §1

[11] = system: momingglory (Ipomoea hederacea); experiment: Test B pre-/postemergence; set-up: key: 0 is no effect; 10 is complete control
Procedure, shortened: as §1

[12] = system: crabgrass (Digitaria sanguinalis); experiment: Test B pre-/postemergence; set-up: key: 0 is no effect; 10 is complete control; conditions: for Crabgrass plant response rating: Preemergence
Procedure, shortened: as §1

[13] = system: smallflower flatsedge (Cyperus difformis); experiment: Test B flood test
Procedure, shortened: (§2)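 Read-out is a visual response score from 0 (no effect) to 10 (complete control), assigned by comparison with untreated controls. Treatment was applied at the 2-leaf stage, and plants stayed in the greenhouse for twelve to sixteen days before scoring.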

rice (Oryza sativa) = experiment: Test B flood test
Procedure, shortened: as §2

[14] = system: duck salad (Heteranthera limosa); experiment: Test B flood test
Procedure, shortened: as §2

[15] = system: bamyardgrass (Echinochloa crus-galli); experiment: Test B flood test
Procedure, shortened: as §2

[16] = Rate 250 g/ha, Postemergence (so in the source)
[17] = Rate 62 g/ha, Postemergence (flood test)
[18] = Rate 125 g/ha, Postemergence section (flood test species)
[19] = Rate 250 g/ha, Postemergence (flood test species)
[20] = Rate 125 g/ha, Postemergence, flood test

## Cc1cnc(-c2ccc(Cl)cc2F)nc1Cc1cccc(C(F)(F)F)c1 [Compound 29]
Rape (Brassica napus); Rate 62 g/ha, Postemergence
  Plant response rating, Rape: 8
Rape (Brassica napus); Rate 62 g/ha, Preemergence
  Rape plant response rating: 1
Rape (Brassica napus); Rate 125 g/ha, Postemergence
  Rape plant response rating: 9
Rape (Brassica napus); Rate 125 g/ha, Preemergence
  Rape plant response rating: 1
Rape (Brassica napus); Rate 250 g/ha, Postemergence
  Plant response rating, Rape: 9
Rape (Brassica napus); [16]
  Plant response rating, Rape: 1
[1]; Rate 62 g/ha, Postemergence
  Plant response rating, Sugarbeets: 9
[1]; Rate 62 g/ha, Preemergence
  Sugarbeets plant response rating: 0
[1]; Rate 125 g/ha, Postemergence
  Sugarbeets plant response rating: 9
[1]; Rate 125 g/ha, Preemergence
  Plant response rating, Sugarbeets: 3
[1]; Rate 250 g/ha, Postemergence
  Plant response rating, Sugarbeets: 10
[1]; [16]
  Plant response rating, Sugarbeets: 4
[2]; Rate 62 g/ha, Postemergence
  Plant response rating, Blackgrass: 2
[2]; Rate 62 g/ha
  Blackgrass plant response rating: 1
[2]; Rate 125 g/ha, Postemergence
  Plant response rating, Blackgrass: 3
[2]; Rate 125 g/ha
  Blackgrass plant response rating: 1
[2]; Rate 250 g/ha, Postemergence
  Plant response rating, Blackgrass: 5
[2]; [16]
  Plant response rating, Blackgrass: 3
[3]; Rate 62 g/ha, Postemergence
  Plant response rating, B. signalgrass: 3
[3]; Rate 62 g/ha
  B. signalgrass plant response rating: 1
[3]; Rate 125 g/ha, Postemergence
  Plant response rating, B. signalgrass: 3
[3]; Rate 125 g/ha
  B. signalgrass plant response rating: 3
[3]; Rate 250 g/ha, Postemergence
  Plant response rating, B. signalgrass: 5
[3]; Rate 250 g/ha, Postemergence as printed in head r139 (second section for compounds 26-50)
  Plant response rating, B. signalgrass: 4
Soybean (Glycine max); Rate 62 g/ha, Postemergence
  Plant response rating, Soybean: 3
Soybean (Glycine max); Rate 62 g/ha, Preemergence
  Soybean plant response rating: 0
Soybean (Glycine max); Rate 125 g/ha, Postemergence
  Soybean plant response rating: 4
Soybean (Glycine max); Rate 125 g/ha, Preemergence
  Plant response rating, Soybean: 0
Soybean (Glycine max); Rate 250 g/ha, Postemergence
  Plant response rating, Soybean: 7
Soybean (Glycine max); [16]
  Plant response rating, Soybean: 0
[4]; Rate 62 g/ha, Postemergence
  Plant response rating, Bedstraw: 2
[4]; Rate 62 g/ha
  Bedstraw plant response rating: 0
[4]; Rate 125 g/ha, Postemergence
  Plant response rating, Bedstraw: 9
[4]; Rate 125 g/ha
  Bedstraw plant response rating: 1
[4]; Rate 250 g/ha, Postemergence
  Plant response rating, Bedstraw: 9
[4]; [16]
  Plant response rating, Bedstraw: 3
[5]; Rate 62 g/ha, Postemergence
  Wheat plant response rating: 2
[5]; Rate 62 g/ha, Preemergence
  Wheat plant response rating: 0
[5]; Rate 125 g/ha, Postemergence
  Wheat plant response rating: 3
[5]; Rate 125 g/ha, Preemergence
  Plant response rating, Wheat: 0
[5]; Rate 250 g/ha, Postemergence
  Plant response rating, Wheat: 4
[5]; [16]
  Plant response rating, Wheat: 0
[6]; Rate 62 g/ha, Postemergence
  Plant response rating, Velvetleaf: 3
[6]; Rate 62 g/ha, Preemergence
  Velvetleaf plant response rating: 0
[6]; Rate 125 g/ha, Postemergence
  Velvetleaf plant response rating: 3
[6]; Rate 125 g/ha, Preemergence
  Plant response rating, Velvetleaf: 0
[6]; Rate 250 g/ha, Postemergence
  Plant response rating, Velvetleaf: 4
[6]; [16]
  Plant response rating, Velvetleaf: 0
Corn (Zea mays); Rate 62 g/ha, Postemergence
  Plant response rating, Corn: 2
Corn (Zea mays); Rate 62 g/ha
  Corn plant response rating: 0
Corn (Zea mays); Rate 125 g/ha, Postemergence
  Plant response rating, Corn: 2
Corn (Zea mays); Rate 125 g/ha
  Corn plant response rating: 0
Corn (Zea mays); Rate 250 g/ha, Postemergence
  Plant response rating, Corn: 3
Corn (Zea mays); [16]
  Plant response rating, Corn: 0
[7]; Rate 62 g/ha, Postemergence
  Plant response rating, Nutsedge: 0
[7]; Rate 62 g/ha, Preemergence
  Nutsedge plant response rating: 0
[7]; Rate 125 g/ha, Postemergence
  Nutsedge plant response rating: 0
[7]; Rate 125 g/ha, Preemergence
  Nutsedge plant response rating: 0
Wild oat (Avena fatua); Rate 62 g/ha, Postemergence
  Wild oats plant response rating: 1
Wild oat (Avena fatua); Rate 62 g/ha, Preemergence
  Wild oats plant response rating: 0
Wild oat (Avena fatua); Rate 125 g/ha, Postemergence
  Wild oats plant response rating: 2
Wild oat (Avena fatua); Rate 125 g/ha, Preemergence
  Plant response rating, Wild oats: 0
Wild oat (Avena fatua); Rate 250 g/ha, Postemergence
  Plant response rating, Wild oats: 4
Wild oat (Avena fatua); [16]
  Plant response rating, Wild oats: 1
[8]; Rate 62 g/ha, Postemergence
  Plant response rating, Giant foxtail: 3
[8]; Rate 62 g/ha, Preemergence
  Giant foxtail plant response rating: 1
[8]; Rate 125 g/ha, Postemergence
  Giant foxtail plant response rating: 4
[8]; Rate 125 g/ha, Preemergence
  Giant foxtail plant response rating: 4
[8]; Rate 250 g/ha, Postemergence
  Plant response rating, Giant foxtail: 4
[8]; [16]
  Plant response rating, Giant foxtail: 9
[9]; Rate 62 g/ha, Postemergence
  Plant response rating, Redroot pigweed: 8
[9]; Rate 62 g/ha, Preemergence
  Redroot pigweed plant response rating: 0
[9]; Rate 125 g/ha, Postemergence
  Redroot pigweed plant response rating: 10
[9]; Rate 125 g/ha, Preemergence
  Redroot pigweed plant response rating: 3
[9]; Rate 250 g/ha, Postemergence
  Plant response rating, Redroot pigweed: 10
[9]; [16]
  Plant response rating, Redroot pigweed: 3
[10]; Rate 62 g/ha, Postemergence
  Plant response rating, Cocklebur: 6
[10]; Rate 62 g/ha
  Cocklebur plant response rating: 0
[10]; Rate 125 g/ha, Postemergence
  Plant response rating, Cocklebur: 6
[10]; Rate 125 g/ha
  Cocklebur plant response rating: 0
[10]; Rate 250 g/ha, Postemergence
  Plant response rating, Cocklebur: 8
[10]; [16]
  Plant response rating, Cocklebur: 0
[11]; Rate 62 g/ha, Postemergence
  Plant response rating, Morningglory: 8
[11]; Rate 62 g/ha, Preemergence
  Morningglory plant response rating: 0
[11]; Rate 125 g/ha, Postemergence
  Morningglory plant response rating: 10
[11]; Rate 125 g/ha, Preemergence
  Morningglory plant response rating: 2
[11]; Rate 250 g/ha, Postemergence
  Plant response rating, Morningglory: 10
[11]; [16]
  Plant response rating, Morningglory: 3
[12]; Rate 62 g/ha, Postemergence
  Plant response rating, Crabgrass: 4
[12]; Rate 62 g/ha
  Crabgrass plant response rating: 2
[12]; Rate 125 g/ha, Postemergence
  Plant response rating, Crabgrass: 6
[12]; Rate 125 g/ha
  Crabgrass plant response rating: 4
[12]; Rate 250 g/ha, Postemergence
  Plant response rating, Crabgrass: 9
[12]; [16]
  Plant response rating, Crabgrass: 7
[13]; [17]
  Plant response rating, S. Flatsedge: 1
[13]; [18]
  S. Flatsedge plant response rating: 6
[13]; [19]
  Plant response rating, S. Flatsedge: 8
Rice (Oryza sativa); [17]
  Plant response rating, Rice: 1
Rice (Oryza sativa); [18]
  Rice plant response rating: 2
Rice (Oryza sativa); [19]
  Plant response rating, Rice: 3
[14]; [17]
  Plant response rating, Ducksalad: 1
[14]; [20]
  Plant response rating, Ducksalad: 3
[14]; [19]
  Plant response rating, Ducksalad: 4
[15]; [17]
  Plant response rating, Barnyardgrass: 2
[15]; [20]
  Plant response rating, Barnyardgrass: 3
[15]; [19]
  Plant response rating, Barnyardgrass: 4
